Patent publication US20250206719A1, “ALBICIDIN DERIVATIVES, THEIR USE AND SYNTHESIS” (TECHNISCHE UNIVERSITÄT BERLIN, priority 2022, published 2025)
Values after ≈ are worked out from the molar mass of the structure shown. Where two headings read alike, the source gives them in different places.

Experiments:
E. coli BW25113 [1] = assay: MIC determination (medium: MHBII/human serum (1:1)); assay type: cell-based; details: Escherichia coli
Method: The test was carried out for bacterial strain, E. coli BW25113 (Gram-negative).
First, 20 μl of glycerol stock of the strain was inoculated in 20 mL LB followed by incubation overnight at 37° C., 200 r.p.m.
The serum was subjected to a heat shock (56° C./30 min in a water bath) before use.
The test inoculum was adjusted by the 0.5 McFarland Standard, so that each well contained approximately 5×10^5 c.f.u. mL^−1 in a final volume of 100 μL. For the adjustment of the test inoculum, MHBII medium and the human serum were used in a mixing ratio of 1:1.
For dilutions, the dry powders were dissolved in DMSO with a concentration of 2.56 mg mL-1 and serially diluted in DMSO (100%). Initial solution and serial dilutions of Ciprofloxacin were prepared in 0.1 N HCl.
Then, 95 μL of the adjusted inoculum was applied per well and 5 μl of each antibiotic dilution was applied to the microdilution tray to reach final concentrations of 8 to 0.016 μg ml^−1.
The antimicrobial effect of the solvent (DMSO or 0.1 N HCL) was tested by adding 5 μL DMSO or 0.1 N HCL to several wells.
One row of each well plate served as a growth control without antibiotic substances, and another row of the microdilution tray served as sterility control (MHB II-media).

S. typhimurium TA100 = assay: MIC microdilution assay, S. typhimurium TA100; assay type: cell-based; details: Salmonella enterica, 20 h, read-out: MIC S. typhimurium TA100
Method: (§1) The tests were performed using the micro dilution method.
(§2) The determination of MIC values was performed according to the ninth edition of the Approved Standard M07-A9 (CLSI. Methods for Dilution Antimicrobial Susceptibility Tests for Bacteria That Grow Aerobically; Approved Standard-Ninth Edition. CLSI document M07-A9. Wayne, PA: Clinical and Laboratory Standards Institute; 2012.)
(§3) The test was carried out for different bacterial strains (E. coli DSM 1116, E. coli BW25113 [gram negative], B. subtilis DSM 10 [gram positive], M. luteus DSM 1790 [gram positive], S. typhimurium TA100 [gram negative]) and M. phlei DSM 750. 20 μL of cryo stock of each strain were inoculated in 20 mL of LB media (Lysogeny broth: 10 g/L peptone, 5 g/L yeast extract, 5 g/L NaCl) followed by incubation over night at 37° C., 200 rpm. The test inoculum was adjusted by the 0.5 McFarland Standard (OD625 from 0.08 to 0.1). Within 15 min of preparation, the adjusted inoculum suspension was diluted in MHBII media (BBL TM Mueller-Hinton Broth II, Becton, Dickinson and Company, New Jersey/USA) so that each well contained approximately 5×10^5 CFU/mL in a final volume of 100 μL. 95 μL of the inoculum were applied per well and 5 μL of the (diluted) antibiotic substance were added.
(§4) Previously the dry antibiotic compounds were dissolved in DMSO (100%) with a concentration of 2560 μg/mL and the resulting stock solutions were further diluted in DMSO (100%). 5 μL of each antibiotic dilution were applied to the microdilution tray to reach final concentrations of 64 μg/mL to 0.008 μg/mL. One row of each well plate was left as a growth control without antibiotic substances and another row of the microdilution tray was used as sterility control (only MHB II-media). The antimicrobial effect of the solvent (DMSO) was tested by adding 5 μL DMSO to several wells without antibiotics. Purity check and cell titer control were performed according to International Standard M07-A9 on Mueller-Hinton II Agar (Mueller Hinton II Broth, 15 g/L agar-agar). Both microdilution trays and agar plates were incubated at 37° C. for 20 h and subsequently analyzed visually.

[2] = tested on: Micrococcus luteus DSM1790; assay: MIC microdilution assay, M. luteus DSM 1790; assay type: cell-based; details: read-out: MIC M. luteus DSM 1790
Method: as §1, §2, §3, §4

E. coli BW25113 [3] = assay: MIC microdilution assay, E. coli BW25113; assay type: cell-based; details: Escherichia coli, read-out: MIC E. coli BW25113
Method: as §1, §2, §3, §4

M. phlei DSM 750 = assay: MIC microdilution assay, M. phlei DSM 750; assay type: cell-based, Mycobacterium phlei; details: Mycolicibacterium phlei, read-out: MIC M. phlei DSM 750
Method: as §1, §2, §3, §4

E. coli DSM 1116 = assay: MIC microdilution assay, E. coli DSM 1116; assay type: cell-based; details: Escherichia coli, read-out: MIC E. coli DSM1116
Method: as §1, §2, §3, §4

Bacillus subtilis DSM10 = assay: MIC microdilution assay, B. subtilis DSM 10; assay type: cell-based; details: read-out: MIC B. subtilis DSM10
Method: as §1, §2, §3, §4

[4] = E. coli BW25113, MHBII/human serum 1:1, test range 8 to 0.016 μg/ml, read-out: MIC E. coli + 50% human serum
[5] = MHBII medium, 37° C., test range 64 to 0.008 μg/mL
[6] = BW25113, MHBII medium, 37° C., 20 h, test range 64 to 0.008 μg/mL
[7] = DSM1790, MHBII medium, 37° C., 20 h, test range 64 to 0.008 μg/mL
[8] = DSM750, MHBII medium, 37° C., 20 h, test range 64 to 0.008 μg/mL
[9] = DSM1116, MHBII medium, 37° C., 20 h, test range 64 to 0.008 μg/mL
[10] = DSM10, MHBII medium, 37° C., 20 h, test range 64 to 0.008 μg/mL

| SMILES | MIC (E. coli BW25113 [1]; [4]) [µg/mL] | MIC (S. typhimurium TA100; [5]) [µg/mL] | MIC (E. coli BW25113 [3]; [6]) [µg/mL] | MIC [2, 7] [µg/mL] | MIC (M. phlei DSM 750; [8]) [µg/mL] | MIC (E. coli DSM 1116; [9]) [µg/mL] | MIC (Bacillus subtilis DSM10; [10]) [µg/mL] | further results |
| --- | --- | --- | --- | --- | --- | --- | --- | --- |
| COc1c(NC(=O)c2ccc(NC(=O)c3ccc(NC(=O)[C@H](Cc4c[nH]nn4)NC(=O)c4ccc(NC(=O)c5ccc6ncccc6c5)cc4)cn3)c(OC)c2O)ccc(C(=O)O)c1O (stereo in doubt) [Compound 2] | 4 | ≤ 0.016 | – | – | – | – | – | – |
| COc1c(NC(=O)c2ccc(NC(=O)c3ccc(NC(=O)[C@H](Cc4c[nH]nn4)NC(=O)c4ccc(NC(=O)c5cc6ccccc6cn5)cc4)cn3)c(OC)c2O)ccc(C(=O)O)c1O (stereo in doubt) [Compound 10] | – | – | – | – | – | – | – | MIC ([2]; DSM1790, 20 h): 0.063 µg/mL (≈ 0.0715 µM); MIC (E. coli BW25113 [1]; BW25113, read-out: MIC E. coli + 50% human serum): 1 µg/mL; MIC (E. coli BW25113 [3]; BW25113, 20 h): ≤ 0.016 µg/mL; MIC (M. phlei DSM 750; DSM750, 20 h): 1 µg/mL (≈ 1.14 µM); MIC (E. coli DSM 1116; DSM1116, 20 h): ≤ 0.016 µg/mL; MIC (S. typhimurium TA100): ≤ 0.016 µg/mL; MIC (Bacillus subtilis DSM10; DSM10, 20 h): 0.063 µg/mL (≈ 0.0715 µM) |
| COc1c(NC(=O)c2ccc(NC(=O)c3ccc(NC(=O)[C@H](Cc4c[nH]nn4)NC(=O)c4ccc(NC(=O)c5cc(=O)c6cc(F)ccc6o5)cc4)cn3)c(OC)c2O)ccc(C(=O)O)c1O (stereo in doubt) [Compound 12] | 8 | ≤ 0.016 | – | – | – | – | – | – |
| COc1c(NC(=O)c2ccc(NC(=O)c3ccc(NC(=O)[C@H](Cc4c[nH]nn4)NC(=O)c4ccc(NC(=O)c5ccc6ccccc6n5)cc4)cn3)c(OC)c2O)ccc(C(=O)O)c1O (stereo in doubt) [Compound 13] | 2 | ≤ 0.016 | – | – | – | – | – | – |
| COc1c(NC(=O)c2ccc(NC(=O)c3ccc(NC(=O)[C@H](Cc4c[nH]nn4)NC(=O)c4ccc(NC(=O)c5cc6cc(O)ccc6[nH]5)cc4)cn3)c(OC)c2O)ccc(C(=O)O)c1O (stereo in doubt) [Compound 14] | ≥ 8 | 0.125 (≈ 0.141 µM) | 0.125 (≈ 0.141 µM) | – | – | – | – | – |
| COc1c(NC(=O)c2ccc(NC(=O)c3ccc(NC(=O)C(Cc4c[nH]nn4)NC(=O)c4ccc(NC(=O)/C(C)=C/c5ccc(O)cc5)cc4)cn3)c(OC)c2O)ccc(C(=O)O)c1O (stereo not drawn) [3^RD GEN Alb i, reference compound] | 0.5 | 0.016 (≈ 0.0181 µM) | 0.016 (≈ 0.0181 µM) | 0.031 (≈ 0.035 µM) | 0.25 (≈ 0.282 µM) | 0.016 (≈ 0.0181 µM) | 0.031 (≈ 0.035 µM) | – |
| COc1c(NC(=O)c2ccc(NC(=O)c3ccc(NC(=O)[C@H](Cc4c[nH]nn4)NC(=O)c4ccc(NC(=O)c5ccc6nc(C)ccc6c5)cc4)cn3)c(OC)c2O)ccc(C(=O)O)c1O [Compound 1] | 0.5 | ≤ 0.016 | 0.016 (≈ 0.0179 µM) | 0.063 (≈ 0.0704 µM) | 0.5 (≈ 0.559 µM) | 0.016 (≈ 0.0179 µM) | 0.063 (≈ 0.0704 µM) | – |
| COc1c(NC(=O)c2ccc(NC(=O)c3ccc(NC(=O)[C@H](Cc4c[nH]nn4)NC(=O)c4ccc(NC(=O)c5cnc6ccccc6c5)cc4)cn3)c(OC)c2O)ccc(C(=O)O)c1O [Compound 3] | 2 | ≤ 0.016 | – | – | – | – | – | – |
| COc1c(NC(=O)c2ccc(NC(=O)c3ccc(NC(=O)[C@H](Cc4c[nH]nn4)NC(=O)c4ccc(NC(=O)c5c[nH]c6ccccc6c5=O)cc4)cn3)c(OC)c2O)ccc(C(=O)O)c1O [Compound 4] | 2 | ≤ 0.016 | – | – | – | – | – | – |
| CCn1cc(C(=O)Nc2ccc(C(=O)N[C@@H](Cc3c[nH]nn3)C(=O)Nc3ccc(C(=O)Nc4ccc(C(=O)Nc5ccc(C(=O)O)c(O)c5OC)c(O)c4OC)nc3)cc2)c(=O)c2cc3c(cc21)OCO3 [Compound 6] | 0.5 | ≤ 0.016 | – | – | – | – | – | – |
| COc1c(NC(=O)c2ccc(NC(=O)c3ccc(NC(=O)[C@H](Cc4c[nH]nn4)NC(=O)c4ccc(NC(=O)c5ccc6nccnc6c5)cc4)cn3)c(OC)c2O)ccc(C(=O)O)c1O [Compound 7] | 1 | ≤ 0.016 | – | – | – | – | – | – |
| COc1c(NC(=O)c2ccc(NC(=O)c3ccc(NC(=O)C(Cc4c[nH]nn4)NC(=O)c4ccc(NC(=O)c5ccc6ncsc6c5)cc4)cn3)c(OC)c2O)ccc(C(=O)O)c1O (stereo not drawn) [Compound 8] | 0.5 | ≤ 0.016 | ≤ 0.016 | – | 2 (≈ 2.26 µM) | ≤ 0.016 | – | – |
| COc1c(NC(=O)c2ccc(NC(=O)c3ccc(NC(=O)C(Cc4c[nH]nn4)NC(=O)c4ccc(NC(=O)c5ccc6nc[nH]c6c5)cc4)cn3)c(OC)c2O)ccc(C(=O)O)c1O (stereo not drawn) [Compound 9] | ≥ 8 | 0.125 (≈ 0.144 µM) | 0.125 (≈ 0.144 µM) | 2 (≈ 2.3 µM) | 8 (≈ 9.2 µM) | 0.125 (≈ 0.144 µM) | 2 (≈ 2.3 µM) | – |
| CCn1cc(C(=O)Nc2ccc(C(=O)N[C@@H](Cc3c[nH]nn3)C(=O)Nc3ccc(C(=O)Nc4ccc(C(=O)Nc5ccc(C(=O)O)c(O)c5OC)c(O)c4OC)nc3)cc2)c(=O)c2ccc(C)nc21 [Compound 11] | 8 | ≤ 0.016 | – | – | – | – | – | – |
| COc1c(NC(=O)c2ccc(NC(=O)c3ccc(NC(=O)C(Cc4c[nH]nn4)NC(=O)c4ccc(NCc5ccc6ncccc6c5)cc4)cn3)c(OC)c2O)ccc(C(=O)O)c1O (stereo not drawn) [Compound 15] | 4 to 8 | 0.031 (≈ 0.0358 µM) | 0.031 (≈ 0.0358 µM) | 0.125 (≈ 0.144 µM) | 2 (≈ 2.31 µM) | 0.063 (≈ 0.0727 µM) | 0.25 to 0.5 (≈ 0.288 to 0.577 µM) | – |
| COc1c(NC(=O)c2ccc(NC(=O)c3ccc(NC(=O)C(Cc4c[nH]nn4)NC(=O)c4ccc(NC(=O)c5ccc6nn[nH]c6c5)cc4)cn3)c(OC)c2O)ccc(C(=O)O)c1O (stereo not drawn) [Compound 16] | 8 | 0.125 (≈ 0.144 µM) | 0.031 (≈ 0.0356 µM) | 1 (≈ 1.15 µM) | 4 to 8 (≈ 4.59 to 9.19 µM) | 0.063 (≈ 0.0723 µM) | 0.5 to 1 (≈ 0.574 to 1.15 µM) | – |
